According to PubChem BioAssay AID2743 (NMMLSC, 2010):
Activity calls are given as the source filed them.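 The calls were made as follows: active = fitted half-maximal concentration for change in GFP expression of 33 µM or less; inactive = the rest.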

Experiment: concentration-dependent AGP1-GFP change, TOR pathway – cell-based, flow cytometry, S. cerevisiae, MLPCN hits, dose response (AID 2743)
Settings: S. cerevisiae AGP1-GFP strain, flow cytometry GFP, 3 h; at 33 µM (top of the series)

SMILES	GFP fluorescence (kMESF)
O=C(/C=C/c1ccccn1)c1cc(Br)ccc1O	37.3 kMESF (inactive)
O=c1/c(=C/c2cccc3ccccc23)sc2ncnn12	36.7 kMESF (inactive)
O=[N+]([O-])c1cc(S(=O)(=O)C(F)(F)F)ccc1Sc1nc2ccccc2s1	39.1 kMESF (inactive)
O=C(COc1ccccc1)N1CCN(c2ncnc3c2cnn3-c2ccccc2)CC1	35.1 kMESF (inactive)
CC(=O)Oc1ccc(/C=c2\sc3ncnn3c2=O)cc1	36.7 kMESF (inactive)
O=C1C=CC(=O)N1c1ccc(N2CCCCC2)cc1	46.9 kMESF (inactive)
CN1C(=O)/C(=N\OC(=O)c2cccc3ccccc23)c2ccccc21	38.2 kMESF (inactive)
COc1ccc(C(=O)NC(=S)NNC(=O)c2cnccn2)cc1	42.8 kMESF (inactive)
COc1ccc(CCNC2=C(Cl)C(=O)N(CCc3ccc(OC)c(OC)c3)C2=O)cc1OC	41.5 kMESF (inactive)
Cc1ccc(S(=O)(=O)c2ncccc2[N+](=O)[O-])cc1	47.1 kMESF (inactive)
Cc1ccc(/C=C2/C(=O)ON=C2c2ccccc2)o1	40.1 kMESF (inactive)
CCOC(=O)Cn1cc(/C=C/[N+](=O)[O-])c2ccccc21	43.7 kMESF (inactive)
Cc1cccnc1Nc1nc(-c2ccccn2)cs1	31 kMESF (inactive)
O=C(NC(=S)NNC(=O)c1ccc(Cl)cc1Cl)c1cccnc1	26.1 kMESF (inactive)
COc1ccc(N=Cc2nc(-c3ccccc3)oc2OC(=O)c2ccccc2)cc1	39.5 kMESF (inactive)
O=C(/C=C/c1cc(Br)ccc1O)c1ccco1	40.2 kMESF (inactive)
COc1cc(/C=C2\C(=O)ON=C2c2ccc(Cl)cc2)ccc1O	33 kMESF (inactive)
O=C(/C=C/c1cccc([N+](=O)[O-])c1)c1ccc([N+](=O)[O-])o1	10.4 kMESF (inactive)
CCc1ccc(/C=C/C(=O)c2cc(Br)ccc(=O)c2O)cc1	22.2 kMESF (inactive)
O=C1NC(=O)N(Cc2ccco2)C(=O)/C1=C/c1ccc(-c2cccc([N+](=O)[O-])c2)o1	34.8 kMESF (inactive)
Cc1cc(=O)n2c3c(sc2n1)C(=O)N(Cc1ccccc1)C3=O	44.3 kMESF (inactive)
Cc1ccc(C(c2cc(Cl)c3cccnc3c2O)N2CCN(C)CC2)cc1 (configuration not stated)	27.9 kMESF (inactive)
Cc1ccc(C(CC(=O)O)NC(=O)c2ccc(S(=O)(=O)N3CC(C)OC(C)C3)cc2)cc1 (configuration not stated)	36.9 kMESF (inactive)

SMILES	GFP fluorescence (kMESF)
CCOc1ccccc1/C=c1\sc2ncnn2c1=O	39.5 kMESF (inactive)
CCOc1ccc(N2C(=O)C(Cl)=C(Nc3ccccc3O)C2=O)cc1	43.1 kMESF (inactive)
Cc1ccccc1C(=O)NNC(=S)NC(=O)c1ccc(Cl)cc1Cl	40.9 kMESF (inactive)
N#Cc1ccc(N=c2ssnc2Cl)cc1	33.2 kMESF (inactive)
CC(=O)NN1C(=O)/C(=C/c2ccc(Br)o2)SC1=S	40.5 kMESF (inactive)
Cc1ccc(C2=NN(S(C)(=O)=O)C(c3ccc4c(c3)OCO4)C2)cc1 (configuration not stated)	44.1 kMESF (inactive)
COc1ccccc1C(=O)NNC(=S)NC(=O)c1ccco1	38.7 kMESF (inactive)
Cc1ccc(/C=N/Nc2ncc(Cl)cc2Cl)s1	35.6 kMESF (inactive)
Cc1ccc(S(=O)(=O)ON2C(=O)c3ccccc3C2=O)c(C)c1	33 kMESF (inactive)
COCCN1C(=O)/C(=C/c2ccc(N3CCCC3)cc2C)SC1=S	44.5 kMESF (inactive)
Oc1c(I)cc(Cl)c2cccnc12	25 kMESF (inactive)
CCOc1ccc(N/N=C(/C#N)C(N)=O)cc1	54.7 kMESF (inactive)
CC(=O)OC[C@]12CC[C@H]3[C@@](C)(CC[C@H]4C(C)(C)CCC[C@]34C)[C@@H]1C[C@H](C1=CC(=O)O[C@@H]1OC(C)=O)O2	31 kMESF (inactive)
CN(C)/C=C/C(=O)c1ccc(-c2ccc(Cl)cc2Cl)o1	27.8 kMESF (inactive)
CC(C)(C)c1nnc(N/N=C/c2cc(Br)ccc2O)n(N)c1=O	34.2 kMESF (inactive)
CCN(CC)c1ccc2cc(-c3nc4ccccc4[nH]3)c(=O)oc2c1	48.4 kMESF (inactive)
COc1ccc(C2=CC3=C(Br)C(=O)C(C)(O)C(=O)C3=CO2)cc1 (configuration not stated)	2.12 kMESF (inactive)
O=C(O)/C=C/C(=O)c1ccc2c(c1)CCc1ccccc1-2	18.9 kMESF (inactive)
COc1ccc(-c2cc3cc(C(=O)O)ccn3c2C(=O)c2ccccc2)cc1	43.2 kMESF (inactive)
COc1ccc(OCC(=O)NNC(=S)NC(=O)C2CCCCC2)cc1	35.6 kMESF (inactive)
O=C1N(c2ccccc2C(F)(F)F)O[C@]1(c1ccccc1)C1CCCC1	32.8 kMESF (inactive)
O=C1C=C(c2ccc(Cl)cc2)C(=O)N1Nc1ccccc1	24.4 kMESF (inactive)
CC(=O)N(C1=C(Cl)C(=O)c2ccccc2C1=O)C1CCCCC1	-0.34 kMESF (inactive)

SMILES	GFP fluorescence (kMESF)
Cc1cc(NC(=O)c2cccnc2Cl)ccc1NC(=O)c1cc2ccccc2o1	42.4 kMESF (inactive)
On1ccccc1=S	35.2 kMESF (inactive)
O=C(COc1ccccc1)NNC(=S)NC(=O)c1ccccc1	42.7 kMESF (inactive)
COc1ccc(N2C(=O)/C(=C/c3cccs3)C(=O)NC2=S)cc1	27.3 kMESF (inactive)
Oc1c(CN2CCN(c3ccccc3)CC2)cc(Br)c2cccnc12	39 kMESF (inactive)
O=c1cc(-c2ccccc2)cc(-c2ccccc2)n1O	22.5 kMESF (inactive)
Oc1c(Br)cc(Br)cc1C=Nc1ccc2c(c1)OCO2	42.9 kMESF (inactive)
O=C(Nc1ccc(Cl)cc1)ON=C1CCCC1	28 kMESF (inactive)
CC(=O)Nc1ncnc2c1c(-c1ccc(Cl)cc1)nn2C(C)(C)C	30.3 kMESF (inactive)
O=C(Oc1oc(-c2ccco2)nc1C=Nc1ccc(Cl)cc1)c1ccco1	42 kMESF (inactive)
Cn1ncc2c(O/N=C(\N)c3ccc(C(C)(C)C)cc3)ncnc21	24.7 kMESF (inactive)
C=CCOc1ccc(C(=O)/C=C2/C(=O)Nc3ccccc32)cc1	46.5 kMESF (inactive)
Oc1c(C(Nc2cccc(C(F)(F)F)c2)c2ccncc2)ccc2cccnc12 (configuration not stated)	30.3 kMESF (inactive)
COc1cc(/C=C2\C(=O)N(CCC#N)N=C2C)c(Br)cc1OC(C)C	43.5 kMESF (inactive)
COc1ccc(NC(=O)/C(C#N)=C/c2ncc([N+](=O)[O-])n2C)c(OC)c1	45.2 kMESF (inactive)
Clc1ccc(N=c2ssnc2Cl)cc1	39.8 kMESF (inactive)
CC(=O)Oc1ccc(N2C(=O)C3C4C=CC(CO)(O4)C3C2=O)cc1 (configuration not stated)	41.3 kMESF (inactive)
N#C/C(=C\c1cc(Br)ccc1F)C(=O)NC1CC1	30.6 kMESF (inactive)
Cc1ccc(/C=C2\C(=O)NC(=S)N(c3ccc(F)cc3)C2=O)s1	31.9 kMESF (inactive)
O=c1c2sc(-c3ccccc3)cc2nc2n1CCC2	25 kMESF (inactive)
Cc1ccc2[nH]cc(/C=C/c3cc[n+](C)cc3)c2c1	48.3 kMESF (inactive)
O=C(NC(=S)NNC(=O)c1cnccn1)c1ccc(F)cc1	37.3 kMESF (inactive)
CCC(C)/C(C)=N/NC(=O)c1ccc(COc2ccc(Cl)c(C)c2)cc1 (configuration not stated)	41.2 kMESF (inactive)

SMILES	GFP fluorescence (kMESF)
CCCCc1ccc(NC(=O)CC(C)=O)cc1	37.2 kMESF (inactive)
Cc1nn2c(NCc3ccccn3)c3c(nc2c1-c1ccccc1)CCC3	40.6 kMESF (inactive)
Cc1[nH][nH]c(=O)c1C(c1ccc(-c2ccc(Cl)c(Cl)c2)o1)c1c(C)[nH][nH]c1=O	43.7 kMESF (inactive)
Nc1ccccc1C#CC(=O)c1ccccc1	31.7 kMESF (inactive)
CC1=CC(=O)C(C(C)C)=C/C1=N/OS(=O)(=O)c1ccccc1	36.5 kMESF (inactive)
O=C(C#Cc1ccccc1)c1cccc([N+](=O)[O-])c1	52 kMESF (inactive)
N/C(=N\OC(=O)c1ccc(Cl)cc1Cl)c1ccccc1	27.3 kMESF (inactive)
O=C(C#Cc1ccccc1)c1ccco1	29.7 kMESF (inactive)
Cc1ccsc1/C=C1\C(=O)NC(=S)N(C)C1=O	20.6 kMESF (inactive)
Cn1c(=O)c(C(=O)NNC(=O)c2ccc(Br)cc2)c(O)c2ccccc21	26.2 kMESF (inactive)
C=CCN1C(=O)/C(=C/c2cccs2)C(=O)NC1=S	20.4 kMESF (inactive)
O=C1CCN(S(=O)(=O)c2ccccc2)CCN1CCOCc1ccc(F)cc1	33.5 kMESF (inactive)
CCCc1ccc(OCC(=O)NNC(=S)NC(=O)c2ccco2)cc1	38.1 kMESF (inactive)
COc1ccc2c(c1)c(/C=C/c1cc[n+](C)cc1)cn2C	46.7 kMESF (inactive)
CC[C@H](C)/C=C(C)/C=C/C1=CC2=C(Cl)C(=O)[C@@](C)(OC(C)=O)C(=O)C2=CO1	1.57 kMESF (inactive)
O=C1ON=C(c2ccccc2)/C1=C/c1ccco1	41.7 kMESF (inactive)
Cc1cccc(C(=O)NC(=S)NNC(=O)Cc2ccccc2)c1	37.6 kMESF (inactive)
Clc1cccc(CN2COc3c(cc(Cl)c4cccnc34)C2)c1	35.6 kMESF (inactive)
CC(c1ccccc1)N1C(=O)/C(=C/c2ccncc2)SC1=S (configuration not stated)	24.4 kMESF (inactive)
O=C1N(c2ccccc2C(F)(F)F)O[C@]1(c1ccccc1)C1CCCCC1	34.3 kMESF (inactive)
Cc1ccnc(N2C(=O)c3cccc4c([N+](=O)[O-])ccc(c34)C2=O)c1	54.7 kMESF (inactive)
Cc1c(Br)c(=O)oc2c(Br)c(O)c(O)cc12	38 kMESF (inactive)
COc1ccc(/C=C2\C(=O)ON=C2c2ccccc2)cc1	28 kMESF (inactive)
